The values below come from US20090233943A9, “NEW COMPOUNDS 835” (priority 2007, published 2009).

The target in this assay is T1, human β-Secretase (soluble part, AA 1-AA 460, sBACE-Fc) (Homo sapiens, UniProt P56817).
T1 construct: The soluble part of the human β-Secretase (AA 1-AA 460) was cloned; made in house
In words: TR-FRET assay (β-secretase enzyme). Type of assay: biochemical. As for the experimental part:
The enzyme used in the IGEN Cleavage-, Fluorescent-, TR-FRET- and BiaCore assays is described as follows:
The soluble part of the human β-Secretase (AA 1-AA 460) was cloned into the ASP2-Fc10-1-IRES-GFP-neoK mammalian expression vector. The gene was fused to the Fc domain of IgG1 (affinity tag) and stably cloned into SEEK 293 cells. Purified sBACE-Fc is stored in Tris buffer, pH 9.2 and has a purity of 95%.
Enzyme was diluted to 6 μg/mL and the substrate (Europium)[…](Qsy7) to 200 nM in reaction buffer (NaAcetate, chaps, triton x-100, EDTA pH 4.5). Compounds were diluted to the desired concentration in dimethyl sulfoxide (final dimethyl sulfoxide concentration in assay is 5%). […] Enzyme (9 μL) and 1 μL of compound in dimethyl sulfoxide was added to the plate, mixed and pre-incubated for 10 min. Substrate (10 μL) was added and the reaction proceeded in the dark for 15 min at RT. The reaction was stopped with the addition of 7 μL NaAcetate, pH 9. The fluorescence of the product was measured on a Victor II plate reader with an excitation wavelength of 340 nm and an emission wavelength of 615 nm. […] The dimethyl sulfoxide control defined the 100% activity level and 0% activity was defined by exclusion of the enzyme (using reaction buffer instead).
Background: Time-resolved FRET reads energy transfer from a long-lived donor to a nearby acceptor.

T1 sequence (P56817 22-460): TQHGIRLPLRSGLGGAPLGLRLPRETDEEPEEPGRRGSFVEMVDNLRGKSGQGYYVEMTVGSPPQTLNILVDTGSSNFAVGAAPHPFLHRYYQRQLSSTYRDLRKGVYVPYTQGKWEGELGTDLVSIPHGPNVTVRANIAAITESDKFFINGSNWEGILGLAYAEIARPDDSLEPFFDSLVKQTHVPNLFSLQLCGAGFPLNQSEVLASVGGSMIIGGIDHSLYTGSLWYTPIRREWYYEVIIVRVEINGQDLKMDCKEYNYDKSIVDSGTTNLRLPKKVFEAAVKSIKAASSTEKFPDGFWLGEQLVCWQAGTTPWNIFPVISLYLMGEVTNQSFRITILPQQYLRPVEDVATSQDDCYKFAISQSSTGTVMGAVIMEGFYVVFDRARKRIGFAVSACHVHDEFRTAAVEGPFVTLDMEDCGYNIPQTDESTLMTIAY

One may read the IC50 as the concentration needed to halve the response being measured. Higher therefore signals lower potency. Take `CN1C(=O)C(c2ccc(S(F)(F)(F)(F)F)cc2)(c2cccc(-c3cc(C#N)ccn3)c2)N=C1N` (stereo not drawn) [Example 42, 2-(3-{2-amino-1-methyl-5-oxo-4-[4-(pentafluoro-λ^6-sulfanyl)phenyl]-4,5-dihydro-1H-imidazol-4-yl}phenyl)pyridine-4-carbonitrile]: the concentration for half-maximal inhibition (IC50) turned out to be 405 nM.

Turning to `CN1C(=O)C(c2ccc(S(F)(F)(F)(F)F)cc2)(c2cccc(-c3cccc(Cl)c3F)c2)N=C1N` (stereo not drawn) [Example 46, 2-amino-5-(3′-chloro-2′-fluorobiphenyl-3-yl)-3-methyl-5-[4-(pentafluoro-λ^6-sulfanyl)phenyl]-3,5-dihydro-4H-imidazol-4-one], the IC50 came out at 694 nM.

In the case of `CN1C(=O)C(c2ccc(S(F)(F)(F)(F)F)cc2)(c2ccc(F)c(-c3cncc(C#N)c3)c2)N=C1N` (stereo not drawn) [Example 23, 5-(5-{2-Amino-1-methyl-5-oxo-4-[4-(pentafluoro-A-sulfanyl)phenyl]-4,5-dihydro-1H-imidazol-4-yl}-2-fluorophenyl)nicotinonitrile 0.25 acetate], the IC50 was 101 nM.

Consider `CN1C(=O)C(c2ccc(S(F)(F)(F)(F)F)cc2)(c2cccc(-c3cccnc3)c2)N=C1N` (stereo not drawn) [Example 33, 2-amino-3-methyl-5-[4-(pentafluoro-λ^6-sulfanyl)phenyl]-5-(3-pyridin-3-ylphenyl)-3,5-dihydro-4H-imidazol-4-one], for which the IC50 amounted to 52 nM.

Regarding `CN1C(=O)C(c2ccc(S(F)(F)(F)(F)F)cc2)(c2cccc(-c3cncnc3)c2)N=C1N` (stereo not drawn) [Example 32, 2-amino-3-methyl-5-[4-(pentafluoro-λ^6-sulfanyl)phenyl]-5-(3-pyrimidin-5-ylphenyl)-3,5-dihydro-4H-imidazol-4-one], the IC50 was found to be 55 nM.

On to `CN1C(=O)C(c2ccc(S(F)(F)(F)(F)F)cc2)(c2cccc(-c3cccc(C#N)c3)c2)N=C1N` (stereo not drawn) [Example 41, 3′-{2-amino-1-methyl-5-oxo-4-[4-(pentafluoro-λ^6-sulfanyl)phenyl]-4,5-dihydro-1H-imidazol-4-yl}biphenyl-3-carbonitrile], for which the IC50 turned out to be 143 nM.
